{"source": "patent EP3122315B1", "about": "“ACTIVE-INGREDIENT COMBINATIONS CONSISTING OF 4-HYDROXYACETOPHENONE AND ONE OR MORE GLYCERIN AND/OR OLIGOGLYCERIN ESTERS OF BRANCHED CHAINS AND/OR UNBRANCHED CHAINS OF ALKANE CARBOXYLIC ACIDS, AND COSMETIC OR DERMATOLOGICAL PREPARATIONS CONTAINING SAID ACTIVE-INGREDIENT COMBINATIONS” (Symrise AG, priority 2014, dated 2015)", "assay": "Solubility tests of 4-hydroxyacetophenone in cosmetic oil with or without glycerol ester additive", "conditions": "for Löslichkeit \"HAP\" bei 35 °C / Löslichkeit \"HAP\" bei RT: solvent C12-15 Alkylbenzoate; for Löslichkeit \"HAP\" bei RT: room temperature (ca. 20 °C)", "protocol": "Die Durchführung der Löslichkeitsversuche erfolgte bei 2 verschiedenen Temperaturen: Bei Raumtemperatur (ca. 20 °C) und bei 35 °C.\nDas weiße, kristalline 4-Hydroxyacetophenon (\"4-HAP\") wurde in kleinen Portionen langsam (über mehrere Stunden) zum jeweiligen Lösungsmittel unter Rühren hinzugegeben, bis sich kein weiteres Material mehr lösen ließ. Hier war die Löslichkeitsgrenze erreicht. Nicht gelöstes Material war deutlich als milchiger Niederschlag oder einzelne Kristalle erkennbar. Das Additiv (der jeweilige Glycerinester) wurde ebenfalls in kleinen Portionen hinzugegeben.\nDie Experimente bei 35°C wurden im Wasserbad durchgeführt. Die Temperatur wurde per Temperatursonde, welche mit dem Heizrührer verbunden war, konstant gehalten. Die Experimente wurden in verschraubten 15 ml Gläsern durchgeführt, um ein Verdampfen des Lösungsmittels zu verhindern. Die Löslichkeit wurde 12-24 Stunden nach der letzten Substanzzugabe gemessen, so dass sich das System equilibrieren konnte. […] Die Löslichkeitsversuche wurden in dem bekannten kosmetischen Öl \"C12-15 Alkylbenzoate\", erhältlich unter anderem unter dem Handelsnamen Tegesoft® TN B von der Firma Evonik, durchgeführt. Die Ergebnisse sind in Tabelle 1 wiedergegeben: Tabelle 1", "note": "Read-outs that look alike come from different tables or passages of the source."}
{"molecule": "CCCCCCCC(=O)OCC(O)CO", "note": "(centres unmarked) [Glycerylcaprylat]", "values": [{"measurement": "Löslichkeit des Glycerylesters im verwendeten Lösungsmittel (kosmetischen öl)", "value": "vollständig"}]}
{"molecule": "CCCCCCCCCCCCCCCCCC(=O)OCC(O)CO", "note": "(centres unmarked) [Glycerylstearate, reference compound]", "values": [{"measurement": "Einfluss auf die Löslichkeit von 4-Hydroxyacetophenon", "setting": "known emulsifier used as additive, concentration not given", "value": "keinen Einfluss"}]}
{"molecule": "CC(=O)c1ccc(O)cc1", "note": "[HAP, 4-Hydroxyacetophenon]", "values": [{"measurement": "Kristalle mit (Löslichkeit \"HAP\" bei 35 °C)", "setting": "concentration at which undissolved crystals were seen, no glycerol ester, C12-15 Alkylbenzoate, 35 °C", "value": 3, "unit": "%"}, {"measurement": "Kristalle bei (Löslichkeit \"HAP\" bei RT)", "setting": "concentration at which undissolved crystals were seen, no glycerol ester, C12-15 Alkylbenzoate, room temperature", "value": "2,25%"}, {"measurement": "Löslichkeit \"HAP\" bei 35 °C", "setting": "no glycerol ester (Ohne), 35 °C water bath", "value": "2,5%"}, {"measurement": "Löslichkeit \"HAP\" bei RT", "setting": "no glycerol ester (Ohne), read 12-24 h after last addition", "value": 2, "unit": "%"}, {"measurement": "Löslichkeit \"HAP\" bei RT", "setting": "with 0,5 % Polyglyceryl-2-caprat", "value": "2,25 % gelöst"}, {"measurement": "Löslichkeit \"HAP\" bei 35 °C", "setting": "with 1 % Glycerylcaprylat, 35 °C", "value": "3 % gelöst (Steigerung im Vergleich zu 2,5 % ohne Ester"}, {"measurement": "Löslichkeit \"HAP\" bei RT", "setting": "with 1 % Glycerylcaprylat", "value": "2,25 % gelöst"}, {"measurement": "Löslichkeit \"HAP\" bei 35 °C", "setting": "with 1 % Polyglyceryl-2-caprat, 35 °C", "value": "3 % gelöst (Steigerung im Vergleich zu 2,5 % ohne Ester)"}, {"measurement": "Löslichkeit \"HAP\" bei RT", "setting": "with 1 % Polyglyceryl-2-caprat", "value": "< 2,25 % nicht vollständig gelöst"}]}
{"molecule": "Glycerylstearatcitrate [reference compound]", "values": [{"measurement": "Einfluss auf die Löslichkeit von 4-Hydroxyacetophenon", "value": "keinen Einfluss"}]}
{"molecule": "Polyglyceryl-2-caprat", "values": [{"measurement": "Löslichkeit des Glycerylesters im verwendeten Lösungsmittel (kosmetischen öl)", "setting": "1 % of the ester in C12-15 Alkylbenzoate, 35°C", "value": "vollständig"}, {"measurement": "Löslichkeit des Glycerylesters im verwendeten Lösungsmittel (kosmetischen öl)", "setting": "1 % of the ester in C12-15 Alkylbenzoate, RT", "value": "vollständig"}]}
